# Assay results from patent publication US20240319171A1, “METHOD FOR SCREENING SUBSTANCE, SYSTEM FOR SCREENING SUBSTANCE, METHOD FOR PRODUCING A CLUMP FROM STEM CELLS, AND METHOD FOR PRODUCING DIFFERENTIATED CELLS” (priority 2023, published 2024).
# Legend:
# [1] = tested on: human subject 1-derived induced fibroblasts; type: cell-based
# [2] = tested on: human subject 1-derived induced fibroblasts; assay: collagen production by induced fibroblasts after adding substance (subject 1); type: cell-based; settings: FIG. 14A; for amount of the collagen produced: human subject 1-derived induced fibroblasts, compared with the control in which the addition was not carried out
# Source text: (§1) Skin cells were collected from a human subject 1 and a human subject 2, and iPS cells were induced from the skin cells from the respective subjects. Further, in the same manner as in Example 2, fibroblasts were induced from the human subject 1-derived iPS cells, and fibroblasts were induced from the human subject 2-derived iPS cells.
# [3] = tested on: human subject 2-derived induced fibroblasts; assay: collagen production by induced fibroblasts after adding substance (subject 2); type: cell-based; settings: compared with the control in which the addition was not carried out, FIG. 14B
# Source text: as §1
# [4] = tested on: human subject 2-derived induced fibroblasts; settings: among phenoxyethanol, paraben, benzalkonium chloride, sodium salicylate, FIG. 15B
# Description: In addition, phenoxyethanol, paraben, benzalkonium chloride, and sodium salicylate, which are respectively antiseptic agents, were prepared.
Structure (SMILES),survival rate of cells [1],amount of the collagen produced [2],amount of the collagen produced [3],survival rate of cells [4],"effectiveness in increasing the production amount of collagen, compared among added substances ([2]; induced fibroblasts derived from human subject 1, among vitamin C, retinol, iPS cell culture medium supernatant)"
OCCOc1ccccc1 [phenoxyethanol],highest,,,,
CC1=C(/C=C/C(C)=C/C=C/C(C)=C/CO)C(C)(C)CCC1 [retinol],,increased,increased,,
O=C([O-])c1ccccc1O.[Na+] [sodium salicylate],,,,highest,
O=C1O[C@H]([C@@H](O)CO)C(O)=C1O [vitamin C],,increased,increased,,most effective
